Here are results for one compound from paper PMC3256212, “Mechanism and Function of Drosophila capa GPCR: A Desiccation Stress-Responsive Receptor with Functional Homology to Human NeuromedinU Receptor” (PLoS ONE, 2012).

Peptide text beside a SMILES is read from it.

The experiment deals with T1, capaR (CG14575) (Drosophila melanogaster, UniProt Q8ITC7).
T1 construct: The ORF of capaR was amplified from whole fly cDNA as template; expressed in transfected cells; host or cells: Drosophila S2 cells (pMT/V5-His TOPO, CuSO4 induction)
T1 sequence (Q8ITC7 1-477): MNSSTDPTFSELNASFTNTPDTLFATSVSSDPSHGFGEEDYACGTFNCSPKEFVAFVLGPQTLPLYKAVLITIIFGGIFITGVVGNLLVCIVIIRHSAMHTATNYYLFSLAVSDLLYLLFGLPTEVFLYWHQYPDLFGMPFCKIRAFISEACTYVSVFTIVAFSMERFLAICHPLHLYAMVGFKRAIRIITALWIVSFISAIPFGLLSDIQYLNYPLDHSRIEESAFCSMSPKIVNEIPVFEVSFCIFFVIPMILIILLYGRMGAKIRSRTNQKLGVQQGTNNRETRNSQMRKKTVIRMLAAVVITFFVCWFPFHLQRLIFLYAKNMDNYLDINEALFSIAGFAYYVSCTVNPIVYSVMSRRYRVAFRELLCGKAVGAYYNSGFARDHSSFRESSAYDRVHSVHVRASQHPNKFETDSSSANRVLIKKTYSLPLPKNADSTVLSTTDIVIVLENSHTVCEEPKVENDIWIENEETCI
The experiment is described as follows: [Ca2+]i (aequorin) in capaR-transfected S2 cells. Type of experiment: cell-based. Particulars: capaR S2 cells; N = 3 (Fig. 3D); read-out: EC50, [Ca2+]i via capaR. The source says: The ORF of capaR was amplified from whole fly cDNA as template using the primers 5′-[…]-3′ and 5′-[…]-3′ and cloned into pMT/V5-His TOPO vector (Invitrogen). The eYFP ORF was fused in-frame at the C-terminus of the capaR using KpnI and ApaI sites and the tagged construct was cloned into the pMT/V5-His TOPO vector.
The capa peptides Drm-capa-1 (GANMGLYAFPRVamide), Drm-capa-2 (ASGLVAFPRVamide), Drm-PK-1 (TGPSASSGLWFGPRLamide), Drm-PK-2 (SVPFKPRLamide) and hugin gamma (hugg, pQLQSNGEPAYRVRTPRL-amide) were synthesised as C-terminally amidated peptides (Biomatik Corporation, Canada). Peptides were dissolved in distilled ACN/H2O to a concentration of 1 mM and then diluted to the required working concentration in Schneider's medium (Invitrogen Inc.). Human neuromedin U-25 was purchased from Sigma. Rabbit polyclonal antibody to porcine neuromedinU-8 was purchased from Progen biotechnik (Heidelberg, Germany). Rabbit capa precursor peptide used was described in [21] Rabbit anti-peptide antibody was raised against the capaR epitope (CQQGTNNRETRNSQM) by Genosphere Biotechnologies (Paris, France) and purified on a HiTrap NHS-activated HP column (Amersham Pharmacia Bio-tech; Buckinghamshire, UK) according to the manufacturer's instructions. Immunohistochemistry was carried out as described previously. Mouse anti-GFP primary antibody (Zymed) and the antiserum to neuromedinU-8 were all diluted 1∶1000 or, in the case of the pre-immune serum, the affinity-purified capaR antibody and the antiserum to the capa precursor peptide, 1∶500. Incubations in the primary antibodies were performed overnight. A FITC-conjugated affinity-purified goat anti-mouse antibody (Jackson Immunologicals) was used in a dilution of 1∶1,000 for visualization of the mouse monoclonal anti-GFP. A Texas red-conjugated affinity-purified goat anti-rabbit antibody (Jackson Immunologicals) was used at a dilution of 1∶1,000 for visualization of the rabbit capaR antiserum.
Drosophila S2 cells, cultured under standard conditions were transiently transfected with the apoaequorin ORF [21] and a receptor ORF construct, and expression induced using CuSO4. Transfected S2 cells were harvested and incubated with 2.5 µM coelenterazine in the dark at RT for 1–2 h as previously described. 25,000 cells were then placed in 135 µl Schneider's medium supplemented with 10% FCS in a well of a white polystyrene 96-well plate (Berthold Technologies). Bioluminescence recordings were carried out using a Mithras LB940 automated 96-well plate reader (Berthold Technologies) and MikroWin software. 15 µl of each of different peptides were applied to final concentrations as required. At the end of each recording samples were disrupted by the addition of 100 µl lysis solution, and the [Ca^2+] concentrations calculated as previously described. For assays in Ca^2+-free medium, transfected cells were collected and pelleted after incubation with coelenterazine. Cell pellets were re-suspended in Ca^2+-free Schneider's medium (Invitrogen Inc.) without FCS and collected by centrifugation. The washing and pelleting procedure was repeated once more. Experiments were then carried out on 25,000 cells per sample as above. To verify whether the observed calcium signal was linked to phospholipase C (PLC) activation, S2-capaR cells were preincubated with the PLC inhibitor U73122 at concentration of 10^−3 M to 10^−8 M for 10 min. Luminometry experiments were carried out on live, intact tubules expressing a targeted transgene for cytosolic-targeted apoaequorin in either principal or stellate cells as previously described, [22]. For in vivo tubule experiments, flies of the following genotypes were used: c42aeq, capaR-GAL4, UAS-capaR, UAS-capaR RNAi, UAS-NMUR 2 and the resulting progeny from GAL4>UAS crosses.

With `CC(C)C[C@H](NC(=O)[C@H](Cc1ccccc1)NC(=O)[C@H](Cc1ccc(O)cc1)NC(=O)CNC(=O)[C@H](CCCNC(=N)N)NC(=O)[C@H](CO)NC(=O)[C@H](CCC(N)=O)NC(=O)[C@H](CO)NC(=O)[C@H](C)NC(=O)[C@H](Cc1ccccc1)NC(=O)[C@@H]1CCCN1C(=O)[C@H](CO)NC(=O)[C@H](CCC(N)=O)NC(=O)[C@H](Cc1ccccc1)NC(=O)[C@H](CCC(=O)O)NC(=O)[C@H](CCC(=O)O)NC(=O)[C@H](CC(=O)O)NC(=O)[C@@H](NC(=O)[C@H](CCCNC(=N)N)NC(=O)[C@@H](N)Cc1ccccc1)C(C)C)C(=O)N[C@@H](Cc1ccccc1)C(=O)N[C@@H](CCCNC(=N)N)C(=O)N1CCC[C@H]1C(=O)N[C@@H](CCCNC(=N)N)C(=O)N[C@@H](CC(N)=O)C(N)=O` [NMU-25, reference compound] (H-FRVDEEFQSPFASQSRGYFLFRPRN-NH2), the EC50 is 0.0218 µM.
